Experimental data taken from ChEMBL document CHEMBL1201862, “PubChem BioAssay data set” (2004).
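Compound exposure: 48 hours, 5 concentrations, 96-well plates. GI50: concentration for 50% inhibition of growth.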 Calls of active or inactive are those of the source. Rule as the data show it: active = GI50 up to about 1.1 µM and inactive = higher. Where a SMILES comes first, the peptide text is derived from it. The star is where a group is joined. Boc = CC(C)(C)OC(=O)*

Tests used:
Test in all cases: growth of human tumour cells (NCI), 48 h
[1] = test system: 786-0
[2] = test system: A549
[3] = test system: ACHN
[4] = test system: CAKI-1
[5] = test system: DU-145
[6] = test system: HL-60
[7] = test system: HOP-62
[8] = test system: HT-29
[9] = test system: Hs-578T
[10] = test system: NCI-H23
[11] = test system: NCI-H522
[12] = test system: NCI/ADR-RES
[13] = test system: PC-3
[14] = test system: SF-539
[15] = test system: SK-MEL-28
[16] = test system: SK-OV-3
[17] = test system: SW-620
[18] = test system: UO-31
[19] = test system: SK-MEL-2

Structure (SMILES)	GI50 [1]	GI50 [2]	GI50 [3]	GI50 [4]	GI50 [5]	GI50 [6]	GI50 [7]	GI50 [8]	GI50 [9]	GI50 [10]	GI50 [11]	GI50 [12]	GI50 [13]	GI50 [14]	GI50 [15]	GI50 [16]	GI50 [17]	GI50 [18]	GI50 [19]
COc1cc(C/N=c2/nc(N(C)C)ss2)cc(OC)c1OC	3.24 µM (inactive)	> 10 µM (inactive)	> 10 µM (inactive)	> 10 µM (inactive)	> 10 µM (inactive)	1.8 µM (inactive)	> 10 µM (inactive)	> 10 µM (inactive)	> 10 µM (inactive)	> 10 µM (inactive)	> 10 µM (inactive)	> 10 µM (inactive)	> 10 µM (inactive)	> 10 µM (inactive)	> 7.31 µM (inactive)	> 10 µM (inactive)	5.6 µM (inactive)	> 10 µM (inactive)	–
CC(C)(C)OC(=O)NCC(=O)NCC(=O)NCC(=O)NCC(=O)O (Boc-GGGG-OH)	> 100 µM (inactive)	> 100 µM (inactive)	> 100 µM (inactive)	> 100 µM (inactive)	> 100 µM (inactive)	> 100 µM (inactive)	> 100 µM (inactive)	> 100 µM (inactive)	66.1 µM (inactive)	> 100 µM (inactive)	> 100 µM (inactive)	> 100 µM (inactive)	> 100 µM (inactive)	> 100 µM (inactive)	> 100 µM (inactive)	> 100 µM (inactive)	> 100 µM (inactive)	> 100 µM (inactive)	–
O=C1CSC2=NCC3(NN12)c1ccccc1-c1ccccc13	> 10 µM (inactive)	> 10 µM (inactive)	> 10 µM (inactive)	> 10 µM (inactive)	> 10 µM (inactive)	> 10 µM (inactive)	> 10 µM (inactive)	> 10 µM (inactive)	> 10 µM (inactive)	> 10 µM (inactive)	> 10 µM (inactive)	> 10 µM (inactive)	> 10 µM (inactive)	> 10 µM (inactive)	> 10 µM (inactive)	> 10 µM (inactive)	> 10 µM (inactive)	> 10 µM (inactive)	–
Cc1ccc(O)c(-c2cc(-c3cccc(Cl)c3)c(C#N)c(N)n2)c1	20.4 µM (inactive)	18.9 µM (inactive)	17.9 µM (inactive)	29.4 µM (inactive)	44.5 µM (inactive)	36.1 µM (inactive)	20.6 µM (inactive)	25.8 µM (inactive)	22.7 µM (inactive)	25.1 µM (inactive)	12.5 µM (inactive)	24.7 µM (inactive)	23.3 µM (inactive)	19.5 µM (inactive)	–	21.4 µM (inactive)	17.2 µM (inactive)	18 µM (inactive)	13.2 µM (inactive)
Nc1nc(N)c2cc(Sc3ccc4ccccc4c3)ccc2n1	0.479 µM (active)	0.343 µM (active)	0.509 µM (active)	4.52 µM (inactive)	5.79 µM (inactive)	1.38 µM (inactive)	3.56 µM (inactive)	1.79 µM (inactive)	11.9 µM (inactive)	5.82 µM (inactive)	2.2 µM (inactive)	1.07 µM (active)	1.87 µM (inactive)	1.73 µM (inactive)	–	13.8 µM (inactive)	0.729 µM (active)	2.76 µM (inactive)	–
C/C(=N\NC(=O)CC#N)C(CN1CCCCC1)C(c1ccccc1)c1c(O)c2ccccc2oc1=O (configuration not stated)	78 µM (inactive)	45.7 µM (inactive)	35 µM (inactive)	64.7 µM (inactive)	> 100 µM (inactive)	27.2 µM (inactive)	–	46.8 µM (inactive)	50.6 µM (inactive)	46.2 µM (inactive)	58.2 µM (inactive)	48.9 µM (inactive)	58.3 µM (inactive)	52.6 µM (inactive)	> 100 µM (inactive)	64 µM (inactive)	91.4 µM (inactive)	33.9 µM (inactive)	35.7 µM (inactive)
